Biological target: Human immunodeficiency virus type 1 reverse transcriptase (Human immunodeficiency virus 1, UniProt Q72547)
Test: Inhibitory activity against HIV-1 reverse transcriptase

**Q.** For `CCN1c2ncccc2-c2nccn2-c2ccc(N3CC=CCC3)nc21`, which IC50 is on record?
**A.** 3.9 µM

**Q.** Which IC50 does the source give for `CCN1c2ncccc2-c2ncc(C)n2-c2c(C)cc(=O)[nH]c21` here?
**A.** 12.2 µM

**Q.** With `CCN1c2ncccc2-c2ncc(C)n2-c2ccc(N3CC=CCC3)nc21` as the molecule, how does the IC50 read?
**A.** 2.7 µM

**Q.** How did the IC50 turn out when `CCc1nc2n(c1C)-c1cccnc1N(CC)c1ncccc1-2` was run?
**A.** 5.63 µM

Reference: ChEMBL document CHEMBL1129551, “All-atom models for the non-nucleoside binding site of HIV-1 reverse transcriptase complexed with inhibitors: a 3D QSAR approach” (J Med Chem, 1996)
